These results are taken from patent US6514967B1 (priority 1997, dated 2003).

Data set [1] can be described thus: Chemical test of capture of OH• radicals (deoxyribose competition). It is filed as biochemical. The settings on record: rate constant of reaction of the competitor with OH•, competition with 2-deoxyribose, UV at 532 nm. The procedure:
A) Chemical test of capture of OH^• radicals:
(Free Rad. Res. Comms., Vol. 14, Nos. 5-6, pp. 363-372)
[…] of buffer (30 mM Na2HPO4.7H2O, 40 mM NaCl, 0.1 mM EDTA), 125 ml of deoxyribose at 2.10^−3 mM and 125 ml of 4-times concentrated solution of radical inhibitor (final concentration from 0 to 0.5 mM) were placed in glass haemolysis tubes cooled on an ice bath. […] of FeSO4 at 10^−3 mM (in water) is added at time 0. After 15 min of incubation the reaction is stopped with 250 ml of trichloroacetic acid at 3%, to which is added 250 ml of solution of thiobarbituric acid at 1.5% (in water). The tubes are kept at 100° C. for 10 min then cooled for detection with UV at 532 nm. The linear relation A0/A=1+ks/dkr [(competitor)/(2-deoxyribose)] was used, where A0 and A denote the absorbances in the absence and in the presence of competitor, ks is the rate constant of reaction of the competitor with OH• and kdr=1.9*10^9 M^−1 sec^−1 is the rate constant of reaction of 2-deoxyribose with OH•. Thus ks is equal to the gradient of the straight line A0/A f((competitor)/(2-deoxyribose)) multiplied by kdr.

In a further data set the target is xanthine oxidase (Homo sapiens, UniProt P47989). Description: Action of the derivatives on xanthine oxidase. It is filed as biochemical. The settings on record: for inhibition at 100 µM: read-out: % inhibition 100 μM; for inhibition at 500 µM: read-out: % inhibition 500 μM. The procedure:
Action of the derivatives on xanthine oxidase:
(Free Radical Biology & Medicine, Vol 20, No 1, pp.35-43, 1996)
[…] of xanthine 20 mM in soda 0.1N and […] of the test product in phosphate buffer at pH 7.4 were placed in a final volume of 2 ml. Reaction is started by adding […] of solution of xanthine oxidase at 0.56 U/ml. Formation of […] is monitored by UV spectroscopy at 290 nm. Allopurinol is a reference inhibitor.

The next data set relates to astrocytes. Kind of data set: Recapture of glutamate by cultures of astrocytes, radicals generated by xanthine/xanthine oxidase (X/XO). In kind it is cell-based, rats. The procedure: B) Procedure with cultures of astrocytes and generation of radicals by the xanthine/xanthine oxidase (X/XO) pair
400 μl of D-lysine at 25 μg/ml (9 ml of D-lysine at 100 μg per ml of borate buffer (0.1M pH 8.4)+27 ml of water) is placed in each well of 24-well culture plates. The wells are left in the stove (5% CO2, 37° C.) over night. Each well is rinsed with 2 times 750 μl of Hanks before receiving the culture medium. 3 lateral demi cortices are taken from rats aged 1 to 2 days. (The hippocampus, the striatum and the meninges are removed). The demi cortices are placed in 2 ml of trypsin-EDTA then put in the stove for 30 min. The action of the trypsin is stopped with 10% of decomplemented foetal calf serum (200 μl). The serum and the trypsin are removed then the cells are dissociated with a pipette in 10 ml of medium (MEM 225 ml+FCS-D 25 ml+glucose 20% 7.5 ml) (MEM=minimum essential medium; FCS-D=decomplemented foetal calf serum). The culture medium is made up to 30 ml, stirred and placed at 400 μl per well. The medium is changed twice weekly for 18 days. The last replacement is effected 4 days prior to the treatment, with a medium without decomplemented foetal calf serum. (MEM 31.5 ml+glucose 20% 1.05 ml).
Treatment takes place on the 18th or 19th day.
Each well is washed with 750 μl of buffer (NaCl 124 mM, KCl 4.6 mM, CaCl2 1.2 mM, MgCl2 1.3 mM, KH2PO4 0.416 mM, NaHCO3 26.75 mM, glucose 10 mM; pH 7.4) for 10 min. The cells are incubated in the presence of xanthine (500 μM) and of the test product (from 0 to 1 mM). After 10 min, xanthine oxidase is added (50 mU/ml) and it is again left to incubate for 10 min. Release of radicals is stopped by washing 3 times with catalase (3000 U/ml). The glutamate is then recaptured in a solution of radioactive glutamate (^3H) at 40 μM (isotopic dilution 1/20000). Recapture is stopped by washing 3 times with the cold buffer. The cells are detached with soda 0.2N and the radioactivity is measured.
Firstly we checked that the inhibition of recapture observed in the presence of X/XO is indeed due to a radical process. For this we replaced the test products with two enzymes: SOD (SuperOxide Dismutase) and catalase (FIG. 1). […] The Fenton reaction converting hydrogen peroxide to OH• is thus short-circuited. […] However, as there seems to be sufficient reducing agent in the medium to promote the formation of H2O2 starting from O2^•^−, it appears likely that a substantial proportion of H2O2 gives OH• (a highly reactive radical).
FIGS. 3 to 8 are the mean of at least 4 independent tests in which the protective power of IC180, IC023, IC241, IC2-16, IC178, IC140, IC209, IC237, IC146, IC193, IC194, IC242, IC207, IC2-19, IC219, IC2-21, and IC249, as a function of the dose, was tested against a fixed concentration of radicals, and therefore of X/XO. In the case of IC180, the increase in recapture appears to be linear (up to 100% is found in some tests). […] Since IC023 alone only becomes “toxic” starting from 1 mM, the variation observed starting from 0.6 mM might reflect the existence of metabolites that are poorly tolerated by the cells. The derivative morpholine IC180 is more interesting.

Setting [2] is: product at 100 μM, UV at 290 nm.
The mark [3] stands for this setting: product at 500 μM, UV at 290 nm.

Read-outs that look alike come from different tables or passages of the source.

Sequence of xanthine oxidase (P47989 whole entry, species assumed): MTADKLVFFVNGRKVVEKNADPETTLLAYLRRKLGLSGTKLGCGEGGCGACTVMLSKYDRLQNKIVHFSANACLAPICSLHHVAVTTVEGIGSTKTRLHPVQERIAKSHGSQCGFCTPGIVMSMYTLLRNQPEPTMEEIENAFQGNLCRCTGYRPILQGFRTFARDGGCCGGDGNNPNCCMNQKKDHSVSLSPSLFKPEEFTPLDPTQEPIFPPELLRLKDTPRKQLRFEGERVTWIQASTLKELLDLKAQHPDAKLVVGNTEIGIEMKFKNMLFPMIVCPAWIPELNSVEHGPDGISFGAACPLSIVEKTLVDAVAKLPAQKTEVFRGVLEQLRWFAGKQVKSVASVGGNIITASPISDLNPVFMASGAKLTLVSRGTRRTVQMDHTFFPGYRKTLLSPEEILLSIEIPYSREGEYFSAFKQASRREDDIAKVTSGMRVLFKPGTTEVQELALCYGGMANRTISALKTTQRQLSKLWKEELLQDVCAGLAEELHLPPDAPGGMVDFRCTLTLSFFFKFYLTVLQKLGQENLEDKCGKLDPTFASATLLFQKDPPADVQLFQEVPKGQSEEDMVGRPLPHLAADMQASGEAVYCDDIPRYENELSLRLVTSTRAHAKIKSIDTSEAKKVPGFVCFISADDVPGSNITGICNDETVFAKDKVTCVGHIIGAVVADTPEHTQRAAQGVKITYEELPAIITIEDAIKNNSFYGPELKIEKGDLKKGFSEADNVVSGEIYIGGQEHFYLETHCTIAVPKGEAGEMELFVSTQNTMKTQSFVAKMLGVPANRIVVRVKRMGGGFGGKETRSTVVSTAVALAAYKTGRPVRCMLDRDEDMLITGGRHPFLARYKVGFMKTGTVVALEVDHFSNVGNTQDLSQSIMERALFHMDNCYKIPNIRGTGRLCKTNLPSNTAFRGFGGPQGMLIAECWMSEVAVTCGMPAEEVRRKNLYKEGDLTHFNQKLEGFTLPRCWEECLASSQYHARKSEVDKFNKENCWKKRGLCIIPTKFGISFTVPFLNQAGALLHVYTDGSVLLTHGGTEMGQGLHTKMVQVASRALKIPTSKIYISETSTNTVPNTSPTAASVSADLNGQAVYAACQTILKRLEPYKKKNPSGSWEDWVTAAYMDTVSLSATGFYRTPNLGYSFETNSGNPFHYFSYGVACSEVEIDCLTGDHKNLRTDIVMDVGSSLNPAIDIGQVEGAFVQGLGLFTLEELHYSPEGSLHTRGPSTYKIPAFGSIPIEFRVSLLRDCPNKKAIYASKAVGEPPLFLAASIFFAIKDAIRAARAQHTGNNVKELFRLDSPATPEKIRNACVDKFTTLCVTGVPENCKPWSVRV

For `CN1CCN(C2CCSc3sccc32)CC1` (stereo not drawn) [IC242, (N-methyl piperazine)-4-tetrahydro-4,5,6,7-thio-7-benzothiophene], in data set [1], the “ks (10^−9M^−1 sec^−1) (±SEM)” value is on record as 3.00 ± 0.19 10^−9M^−1 sec^−1.

For the compound `Cl.NC1CCCc2ccsc21` (stereo not drawn) [IC178, amino-7-tetrahydro-4,5,6,7-benzothiophene], in data set [1], the “ks (10^−9M^−1 sec^−1) (±SEM)” value is on record as 2.76 ± 0.06 10^−9M^−1 sec^−1.

In the case of `Cl.c1cc2c(s1)SCCC2N1CCCCC1` (stereo not drawn) [IC237, piperidino-4-tetrahydro-4,5,6,7-thio-7-benzothiophene], at xanthine oxidase, the inhibition at 100 µM was -9% and the inhibition at 500 µM was -8%. Moreover, the “ks (10^−9M^−1 sec^−1) (±SEM)” value in data set [1] is given as 3.45 ± 0.19 10^−9M^−1 sec^−1.

In the case of `Oc1ncnc2[nH]ncc12` [Allopurinol, reference compound], on xanthine oxidase, the inhibition at 100 µM was 92% and the inhibition at 500 µM is 90%.

For catalase, the “recapture of glutamate with enzyme in place of test product (in words)” value with astrocytes (in presence of X/XO, control, FIG. 1) is “allows a normal degree of recapture to be attained”.

Regarding `Cl.NC1CCCc2sccc21` (stereo not drawn) [IC088, amino-4-tetrahydro-4,5,6,7-benzothiophene], at xanthine oxidase (setting [2]), the inhibition at 100 µM is -15%. In data set [1], the “ks (10^−9M^−1 sec^−1) (±SEM)” value is given as 3.37 ± 0.25 10^−9M^−1 sec^−1.

For `O=C(O)c1ccccc1O` [ac.salicyl., salicylic acid, reference compound], the “ks (10^−9M^−1 sec^−1) (±SEM)” value in data set [1] is given as 3.02 ± 0.18 10^−9M^−1 sec^−1; in data set [1] (listed as salicylic acid) it was 3.02±0.18 10^−9M^−1 sec^−1.

`c1cc2c(s1)CCCC2N1CCCCC1` (stereo not drawn) [IC023, piperidino-4-tetrahydro-4,5,6,7-benzothiophene]: at xanthine oxidase, the inhibition at 100 µM was -6%. In addition, in the data set with astrocytes (fixed concentration of X/XO), the “% recapture from which the opposite effect is observed” value is not below 15%. Further, the “concentration from which the variation (opposite effect) is observed” value with astrocytes (in presence of X/XO) is reported as not below 0.6 mM. The “concentration from which the product alone becomes "toxic"” value in the data set with astrocytes (product alone, astrocytes) was not below 1000 µM. Also, the “ks (10^−9M^−1 sec^−1) (±SEM)” value in data set [1] is on record as 3.61 ± 0.16 10^−9M^−1 sec^−1.

For the compound `CN1CCN(C2CCCc3sccc32)CC1` (stereo not drawn) [IC194, N-methyl-piperazine-4-tetrahydro-4,5,6,7-benzothiophene], on xanthine oxidase (setting [2]), the inhibition at 100 µM is -15%. At xanthine oxidase (setting [3]), the inhibition at 500 µM was determined as 10%. The “ks (10^−9M^−1 sec^−1) (±SEM)” value in data set [1] is 3.50 ± 0.23 10^−9M^−1 sec^−1.

As for `Cl.c1cc2c(s1)C(N1CCOCC1)CCC2` (stereo not drawn) [IC2-16], the “ks (10^−9M^−1 sec^−1) (±SEM)” value in data set [1] was 3.33 ± 0.15 10^−9M^−1 sec^−1.

`O=C[C@@H](O)[C@@H](O)[C@H](O)[C@H](O)CO` [D-mannose, reference compound]: the “ks (10^−9M^−1 sec^−1) (±SEM)” value in data set [1] is 0.94±0.06 10^−9M^−1 sec^−1.

On to `Cl.OC1CCN(C2CCCc3sccc32)CC1` (stereo not drawn) [IC209, (4 hydroxy-piperidine)-4-tetrahydro-4,5,6,7-benzothiophene], for which the “ks (10^−9M^−1 sec^−1) (±SEM)” value in data set [1] was 3.27 ± 0.50 10^−9M^−1 sec^−1.

With `Cl.c1cc2c(s1)SCCC2N1CCOCC1` (stereo not drawn) [IC241, morpholine-4 tetrahydro-4,5,6,7-thio-7-benzothiophene], the inhibition at 100 µM at xanthine oxidase (setting [2]) is 7%. Also, the inhibition at 500 µM at xanthine oxidase (setting [3]) was -8%. Moreover, the “ks (10^−9M^−1 sec^−1) (±SEM)” value in data set [1] is 3.01 ± 0.14 10^−9M^−1 sec^−1.

Consider `Cl.c1cc2c(s1)CCCC2N1CCSCC1` (stereo not drawn) [IC193, thiomorpholine-4-tetrahydro-4,5,6,7-benzothiophene], for which the inhibition at 100 µM at xanthine oxidase (setting [2]) is -7%. At xanthine oxidase (setting [3]), the inhibition at 500 µM was -2%. In data set [1], the “ks (10^−9M^−1 sec^−1) (±SEM)” value was 3.41 ± 0.25 10^−9M^−1 sec^−1.

Consider `O=C1O[C@H]([C@@H](O)CO)C(O)=C1O` [vitamin C, reference compound], for which the “ks (10^−9M^−1 sec^−1) (±SEM)” value in data set [1] was 1.87±0.17 10^−9M^−1 sec^−1.

The inhibition is the relative decrease from the control value, in per cent.
